From patent US5214165A, “Compounds useful as intermediates in the synthesis of shikimic acid derivatives” (Imperial Chemical Industries PLC, priority 1989, dated 1993)
≈ marks a conversion by molar mass, not a printed value. Read-outs that look alike come from different tables or passages of the source.

How the values were obtained:
E. coli K12 [1] = assay: interaction with sulphamethoxazole, disc approximation method; format: cell-based
Procedure: (§1) 3) The interaction of 6-fluoroshikimate (racemic mixture) with a representative sulphonamide (sulphamethoxazole) was tested using both a disc approximation method and chequerboard titration.

Enterobacter cloacae [2] = assay: as above; format: cell-based
Procedure: as §1

Klebsiella pneumoniae [3] = assay: as above; format: cell-based
Procedure: as §1

E. coli K12 [4] = assay: interaction with sulphamethoxazole, chequerboard titration; format: cell-based
Procedure: as §1

carrot cells [5] = assay: standard carrot cell test for herbicidal activity; format: cell-based; conditions: carrot cells in liquid culture, shake flasks, 25° C.
Procedure: 5) In a standard test for herbicidal activity carrot cells were grown in shake flasks at 25° C. in liquid culture (Murashige and Skoog media with 0.2 mg/liter of kinetin and 0.1 mg/liter of 2.4 dichlorophenoxyacetic acid). The growth of cells was measured and an IC50 value obtained for compounds which were added in water.

E. coli N99 [6] = assay: disc diffusion antibacterial activity, zones of inhibition; format: cell-based; conditions: Escherichia coli; for zone of inhibition at 1.5 µg/disc: 1.5 μg applied on to disc
Procedure: (§2) 1) Antimicrobial activity was assessed in vitro using a disc diffusion method and a method wherein the test compound was in agar. Both methods employed the use of Davis and Mingioli (J. Bact (1950) 60 17-28) glucose agar.
i) The disc diffusion method used an overnight culture of E. coli N99 in Davis and Mingioli broth as an ioculum for the agar (e.g. 500 μl/100 ml agar). Test compounds were dissolved in distilled water and placed on to a 6 mm diameter disc which had just been applied to the agar surface. The plates were then incubated for 16 hours at 37° C. Using this method the following zones of inhibition were observed.

Bacillus licheniformis = assay: test compound in agar method, MIC; format: cell-based; conditions: glucose agar, 16 hours at 37° C., read-out: MIC (minimum inhibitory concentration)
Procedure: as §2
(§3) ii) The "test compound in agar" method studied 6-α-fluoroshikimate at various final concentration in the agar (i.e. between 0 and 500 μg/ml) to obtain MIC (minimum inhibitory concentration) values for nine different bacterial cultures. Cultures were grown in Davis and Mingioli broth for 16 hours at 37° C. and diluted in fresh Davis and Mingioli broth to give 10^6 cells/ml. 1 μl volume of each culture was applied to the surface of each agar plate containing 6-α-fluoroshikimate and the plates were then incubated for 16 hours at 37° C. before each inoculation spot was visually assessed for growth. Using this technique the following results were observed: […]

Bacillus subtilis = assay: test compound in agar method, MIC; format: cell-based; conditions: glucose agar, 16 hours at 37° C., read-out: MIC (minimum inhibitory concentration)
Procedure: as §2, §3

E. coli. B = assay: test compound in agar method, MIC; format: cell-based; conditions: Escherichia coli, glucose agar, 16 hours at 37° C., read-out: MIC (minimum inhibitory concentration)
Procedure: as §2, §3

E. coli. N99 = assay: test compound in agar method, MIC; format: cell-based; conditions: Escherichia coli, glucose agar, 16 hours at 37° C., read-out: MIC (minimum inhibitory concentration)
Procedure: as §2, §3

Enterobacter cloacae [7] = assay: test compound in agar method, MIC; format: cell-based; conditions: glucose agar, 16 hours at 37° C., read-out: MIC (minimum inhibitory concentration)
Procedure: as §2, §3

[8] = tested on: Klebsiella pneumoniae ATCC 25304; assay: test compound in agar method, MIC; format: cell-based; conditions: ATCC25304, glucose agar, 16 hours at 37° C., read-out: MIC (minimum inhibitory concentration)
Procedure: as §2, §3

Klebsiella pneumoniae [9] = assay: test compound in agar method, MIC; format: cell-based; conditions: glucose agar, 16 hours at 37° C., read-out: MIC (minimum inhibitory concentration)
Procedure: as §2, §3

[10] = tested on: Pseudomonas aeruginosa 799/wt; assay: test compound in agar method, MIC; format: cell-based; conditions: glucose agar, 16 hours at 37° C., read-out: MIC (minimum inhibitory concentration)
Procedure: as §2, §3

Serratia marcescens = assay: test compound in agar method, MIC; format: cell-based; conditions: glucose agar, 16 hours at 37° C., read-out: MIC (minimum inhibitory concentration)
Procedure: as §2, §3

E. coli N99 [11] = assay: mouse protection test; format: in vivo; parameters: unit not given beside the values; conditions: mice
Procedure: 4) The in vivo efficacy of the fluoroshikimate was determined by the use of a mouse protection test. Male mice (18-20 g) were inoculated intraperitoneally with ten times the previously determined LD50 for E. coli N99 in 0.4 ml of hog gastric mucin (12%). Immediately after infection the mice were dosed with 0.2 ml of test compound either subcutaneously, per os or intraperitoneally. Based on the number of survivors at day 4 post infection, PD50 values were calculated by LOGIT analysis.

E. coli 341094 = assay: mouse protection test; format: in vivo; parameters: unit not given beside the values; conditions: mice
S. aureus 601055 = assay: mouse protection test; format: in vivo; parameters: unit not given beside the values; conditions: mice
S. dublin 369001 = assay: mouse protection test; format: in vivo; parameters: unit not given beside the values; conditions: mice
E. coli N99 [12] = assay: reversal studies of growth inhibition by 6α-fluoroshikimate; format: cell-based; conditions: in presence of 6α-fluoroshikimate; for Effect on the E. coli N99 inhibited growth: agent (each) at 100.0 μg/ml final well concentration, result in words
Procedure: 2) Reversal studies were performed by adding agents to an E. coli N99 (Davis and Mingioli broth) 10^6 cells/ml. suspension in the presence of 6α-fluoroshikimate and the bacterial growth assessed by the use of a spectrophotometer (Absorbance 540 nm)
Inhibition of bacterial growth was reversed by paraaminobenzoic acid (PABP) but degrees of counter reversion were seen after the addition of aromatic amino acid types. Using this technique the following results were observed: […]

carrot cells [13] = conditions: well-known herbicide, in words; cited from earlier work
[14] = 16 hours at 37° C. (α: hazy zone), read-out: mm diameter zones of inhibition vs. E. coli N99

O=C(O)C1=CC(O)C(O)C(O)C1F (racemic) [6-fluoroshikimate (racemic mixture)]
synergistic interaction with sulphamethoxazole (E. coli K12 [1]): synergistic interaction
synergistic interaction with sulphamethoxazole (Enterobacter cloacae [2]): synergistic interaction
synergistic interaction with sulphamethoxazole (Klebsiella pneumoniae [3]): synergistic interaction
synergistic interaction with sulphamethoxazole (E. coli K12 [4]): synergistic interaction was confirmed
IC50 (growth of carrot cells) (carrot cells [5]): 1.5 μ/ml

O=C(O)C1=C[C@@H](O)[C@@H](O)[C@H](O)[C@H]1F [6-α-fluoroshikimate, (3R,4R,5S,6S)6-α-Fluoroshikimic acid]
zone of inhibition at 0.025 µg/disc (E. coli N99 [6]; 0.025 μg applied on to disc, 16 hours at 37° C., read-out: mm diameter zones of inhibition vs. E. coli N99): 0 mm
zone of inhibition at 0.05 µg/disc (E. coli N99 [6]; 0.05 μg applied on to disc, 16 hours at 37° C., hazy, read-out: mm diameter zones of inhibition vs. E. coli N99): 10 mm
zone of inhibition at 1.5 µg/disc (E. coli N99 [6]; [14]): 29 mm
zone of inhibition at 1.5 µg/disc (E. coli N99 [6]; 16 hours at 37° C., inner clear, read-out: mm diameter zones of inhibition vs. E. coli N99, inner clear zone): 23 mm
MIC (Bacillus licheniformis): > 500 µg/mL
MIC (Bacillus subtilis): 50 µg/mL (≈ 260 µM)
MIC (E. coli. B): 1 µg/mL (≈ 5.2 µM)
MIC (E. coli. N99): 0.1 µg/mL (≈ 0.52 µM)
MIC (Enterobacter cloacae [7]): 50 µg/mL (≈ 260 µM)
MIC [8]: 1 µg/mL (≈ 5.2 µM)
MIC (Klebsiella pneumoniae [9]): 5 µg/mL (≈ 26 µM)
MIC [10]: > 500 µg/mL
MIC (Serratia marcescens): > 500 µg/mL
PD50 (day 4) (E. coli N99 [11]; intraperitoneal): > 10
PD50 (day 4) (E. coli N99 [11]; per os): 8.6
PD50 (day 4) (E. coli N99 [11]; subcutaneous): 4.6
PD50 (day 4) (E. coli 341094; per os): 13.4
PD50 (day 4) (E. coli 341094; subcutaneous): 23.2
PD50 (day 4) (S. aureus 601055; per os): 20
PD50 (day 4) (S. aureus 601055; subcutaneous): 20
PD50 (day 4) (S. dublin 369001; per os): 50
PD50 (day 4) (S. dublin 369001; subcutaneous): 20

O=C(O)C1=C[C@@H](O)[C@@H](O)[C@H](O)[C@@H]1F [6-β-fluoroshikimate, (3R,4R,5S,6R)6-β-Fluoroshikimic acid]
zone of inhibition at 1.5 µg/disc (E. coli N99 [6]; [14]): 0 mm
zone of inhibition at 3 µg/disc (E. coli N99 [6]; 3.0 μg applied on to disc, 16 hours at 37° C., very hazy, read-out: mm diameter zones of inhibition vs. E. coli N99): 13 mm
zone of inhibition at 30 µg/disc (E. coli N99 [6]; 30.0 μg applied on to disc, 16 hours at 37° C., very hazy, read-out: mm diameter zones of inhibition vs. E. coli N99): 26 mm

N[C@@H](Cc1ccccc1)C(=O)O [L-Phenyl alanine]
Effect on the E. coli N99 inhibited growth (E. coli N99 [12]): No reversion

N[C@@H](Cc1c[nH]c2ccccc12)C(=O)O [L-tryptophan]
Effect on the E. coli N99 inhibited growth (E. coli N99 [12]): No reversion

N[C@@H](Cc1ccc(O)cc1)C(=O)O [L-tyrosine]
Effect on the E. coli N99 inhibited growth (E. coli N99 [12]): No reversion

Nc1ccc(C(=O)O)cc1 [PABA, paraaminobenzoic acid]
Inhibition of bacterial growth reversed (E. coli N99 [12]; Absorbance 540 nm): reversed

O=C(O)CNCP(=O)(O)O [glyphosate]
activity in the standard carrot cell test (carrot cells [13]): active
